# According to patent US20260306460A1, “COMPOSITION FOR REMOVING AND INHIBITING SENESCENT CELLS, AND USES THEREOF” (LIFECEUTIX CO., LTD., priority 2023, published 2026):
# Tests used:
# [1] = tested on: HMGN1 secreted from senescent A549 cells; test: HMGN1 secretion (ELISA) from senescent A549 cancer cells, Example 12; format: cell-based, human; settings: senescent untreated = 100%; 30 μM; 90 μM for LX-305, 905, 1302, 1601, 1603, 2003, 2702, 2901, 3106; 270 μM for LX-1103, 2005, 2007;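 also: A549 cells made senescent by doxorubicin exposure, with DMSO-treated cells serving as the non-senescent control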
# Procedure: Cells were treated with doxorubicin or control (DMSO) and cultured.
# senescent foreskin cells = test: Survival of senescent human cells treated with supernatant (secreted fluid) from death-induced cells, Example 13; format: cell-based; settings: Table 8; supernatant from dying senescent cells treated at 30, 90 or 270 μM (as Example 11); senescent treated cells
# [2] = tested on: naturally aged C57BL6J mice; test: Skin aging (dermal thickness, COL1A1 and SDF1 mRNA, hair loss) in naturally aged mice, Example 21-10, Table 25; format: in vivo, mouse; settings: for Dermal Thickness (μm): mouse, in vivo; for Relative area of hair loss (%) / Col1a1 mRNA (Fold) / SDF1 mRNA (fold): naturally aged mice; for Relative area of hair loss (%): untreated aged = 100; for Col1a1 mRNA (Fold) / SDF1 mRNA (fold): skin, untreated aged = 1
# Procedure: (§1) 22-month-old female C57BL6J mice (KRIBB Laboratory Animal Resource Center) were acclimated to the experimental environment for one week, after which the aged mice were randomly assigned to experimental and control groups. Eight-week-old, non-aged mice served as controls. LX-403 was mixed in a 10% ethanol solution of PEG400 and administered orally at a concentration of 25 mg/kg daily for 21 days, or administered to the skin, joints, or eyes at a concentration of 1 μM. LX-1801 was mixed in distilled water with 4% DMSO, 30% PEG300, and 5% Tween80 and administered to the skin, joints, or eyes at a concentration of 0.4 μM daily for 21 days. LX-2001 was mixed in PBS and administered to the skin, joints, or eyes at a concentration of […] daily for 21 days. LX-2002 was mixed in distilled water with 4% DMSO, 30% PEG300, and 5% Tween80 and administered to the skin, joints, or eyes at a concentration of 2 μM daily for 21 days. […] LX-2005 was mixed in distilled water with 4% DMSO, 30% PEG300, and 5% Tween80 and administered to the skin, joints, or eyes at a concentration of 90 μM daily for 21 days. LX-2007 was mixed in distilled water with 4% DMSO, 30% PEG300, and 5% Tween80 and administered to the skin, joints, or eyes at a concentration of 90 μM daily for 21 days. […] LX-3002 was mixed in distilled water with 4% DMSO, 30% PEG300, and 5% Tween80 and administered orally at a concentration of 10 mg/kg daily for 21 days. […] LX-5411 was mixed in 5% PBS and administered orally at a concentration of 10 mg/kg daily for 21 days or administered to the skin, joints, or eyes at a concentration of 3 μM. LX-5701 was mixed in PBS and administered orally at a concentration of 360 mg/kg daily for 21 days. LX-6807 was mixed in saline and administered intraperitoneally at a concentration of 1 mg/kg daily for 21 days. LX-2101 or LX-2102 was mixed in PBS solution with 5% DMSO and administered intraperitoneally at a concentration of 20 mg/kg or 10 mg/kg, respectively, daily for 21 days. The control group received only the solution in the same volume. After the end of drug administration, the methods described in each example below were performed.
# Frozen sections of skin tissue were stained with Hematoxylin/Eosin (H/E), and the dermal thickness was observed under an optical microscope. Furthermore, the mRNA levels of collagen (COL1A1), a skin component, and SDF1, which suppresses age-related pigmentation, were measured using qRT-PCR as described in Example 7-2 of WO2023-085787 A1. […] Furthermore, biweekly examinations were performed to assess the onset of hair loss due to aging.
# [3] = tested on: naturally aged C57BL6J mice; format: in vivo, mouse; settings: after 7 days; 6 mm punch dorsal skin wounds; naturally aged mice; untreated aged 3.2 (±0.4)
# [4] = tested on: naturally aged C57BL6J mice; test: Cataract incidence in naturally aged mice, Example 21-15, Table 30; format: in vivo, mouse; settings: orally twice a week, 360 mg/kg, until death, untreated aged 83
# Procedure: as §1
# Cataracts, which occur with age, are a disease that causes visual impairment due to clouding of the lens and are a major cause of blindness. The mice of Example 21-1 were treated with the test compound mixed in PBS orally twice a week at a concentration of 360 mg/kg. Cataract development was assessed biweekly until death.
# [5] = tested on: bleomycin-induced scleroderma C57BL6J mice; test: Bleomycin scleroderma in mice (p16, COL1A1 mRNA, dermal thickness), Example 24-2, Table 48; format: in vivo, mouse; settings: daily for 21 days; for p16 mRNA: untreated 100 (±8.8); for Col1a1 mRNA: untreated 100 (±13.2); for Dermal Thickness: untreated 459 (±38.7)
# Procedure: Eight-week-old male C57BL6J mice (KRIBB Laboratory Animal Resource Center) were acclimated to the experimental environment for one week. Then, 100 μl of the anticancer drug bleomyxin (1 mg/ml) was administered subcutaneously every other day to induce scleroderma for more than three weeks. Mice with scleroderma were randomly assigned to experimental and control groups. LX-403 was mixed with a 10% ethanol solution of PEG400 and administered orally at a concentration of 25 mg/kg daily for 21 days or administered directly to the skin at a concentration of 1 μM. LX-1801 was mixed with a solution of 4% DMSO, 30% PEG300, and 5% Tween80 in distilled water and administered subcutaneously at a concentration of 0.4 μM daily for 21 days. LX-2001 was mixed in PBS and administered intradermally at a concentration of 2 μM daily for 21 days. LX-2002 was mixed in distilled water with 4% DMSO, 30% PEG300, and 5% Tween80 and administered intradermally at a concentration of 2 μM daily for 21 days. […] LX-2005 was mixed in distilled water with 4% DMSO, 30% PEG300, and 5% Tween80 and administered intradermally at a concentration of 90 μM daily for 21 days. LX-2007 was mixed in distilled water with 4% DMSO, 30% PEG300, and 5% Tween80 and administered intradermally at a concentration of 90 μM daily for 21 days. […] LX-3002 was mixed with distilled water with 4% DMSO, 30% PEG300, 5% tween80 and administered orally at 10 mg/kg daily for 21 days. […] LX-5411 was mixed with 5% PBS and administered orally at 10 mg/kg daily for 21 days or subcutaneously at 3 μM. LX-5701 was mixed with PBS and administered orally at 360 mg/kg daily for 21 days. LX-6807 was mixed in saline and administered intraperitoneally at a concentration of 1 mg/kg daily for 21 days. The control group was administered only the solution in the same volume. After the end of drug administration, mice were sacrificed in the same manner as in Example 7-2 of WO2023-085787 A1, RNA was extracted from skin tissue, and the synthesized cDNA was used to perform and analyze the mRNA amounts of p16 and collagen (COL1A1) by qRT-PCR (quantitative real-time PCR). In addition, to measure the degree of bleomycin-induced skin hardening, skin frozen sections were stained with H/E (Hematoxylin/Eosin), and the thickness of the dermis was observed under an optical microscope.
# [6] = tested on: NaIO3-induced retinal degenerative C57BL6J mice; test: NaIO3 retinal degeneration in mice (p16 mRNA, outer nuclear layer thickness), Example 29, Table 53; format: in vivo, mouse; settings: daily for 21 days; for Outer nuclear layer thickness: untreated 27.4 (±1.3); for p16 mRNA: untreated 100%
# Procedure: Then, retinal degenerative diseases were induced for more than 7 days by intravenous administration of 20 mg/kg of NaIO3, an oxidizing agent that induces retinal pigment epithelial cell death and retinal degeneration. Mice with retinal degenerative diseases were randomly assigned to experimental and control groups. […] The control group received only the solution in the same volume. […] In addition, frozen sections of the other eye tissue were stained with H/E (Hematoxylin/Eosin), and the thickness of the outer nuclear layer (ORL) was observed under an optical microscope. […] The mRNA amount after aging induction was calculated as 100% and compared with the mRNA amount of p16 after treatment with the test compound.
structure (smiles),measurement,setting,value
O=C(C(C[N+](=O)[O-])=NO)N1CCN(C(c2ccc(Cl)cc2)c2ccc(Cl)cc2)CC1 [LX-403],HMGN1,[1],320%
same,Survival,senescent foreskin cells,45.1
same,Dermal Thickness (μm),[2],232 (±16.2) μm
same,Relative area of hair loss (%),[2],69 (±2.5) %
same,Col1a1 mRNA (Fold),[2],2.4 (±0.2) Fold
same,SDF1 mRNA (fold),[2],1.8 (±0.1) fold
same,Wound size (mm),[3],1.9 (±0.2) mm
same,Cataract incidence (%),[4],57%
same,p16 mRNA,[5],34.7 (±4.1) %
same,Col1a1 mRNA,[5],45.7 (±4.5) %
same,Dermal Thickness,[5],356 (±36.3) μm
same,Outer nuclear layer thickness,[6],40.1 (±1.9) μm
same,p16 mRNA,[6],34 (±2.2) %
"C[C@@H]1CC[C@@]23C[C@H](O)C(=O)[C@@]2(O)[C@]1(C)[C@H](OC(=O)CCl)C[C@@H](C1=CCn2c(=O)n(-c4ccccc4)c(=O)n2C1)[C@@H]3C [LX-1801, (2S,3aS,4S,5R,7R,8S,8aS,11R)-7-(1,3-Dioxo-2-phenyl-2,3,5,8-tetrahydro-1H-[1,2,4]triazolo[1,2-a]pyridazin-6-yl)-2,3a-dihydroxy-4,8,11-trimethyl-3-oxooctahydro-1H-4,8a-propanoazulen-5-yl 2-Chloroacetate]",HMGN1,[1],295%
same,Survival,senescent foreskin cells,41.6
same,Dermal Thickness (μm),[2],222 (±37.4) μm
same,Relative area of hair loss (%),[2],82 (±6.6) %
same,Col1a1 mRNA (Fold),[2],2.0 (±0.2) Fold
same,SDF1 mRNA (fold),[2],2.1 (±0.2) fold
same,Wound size (mm),[3],2.5 (±0.6) mm
same,Cataract incidence (%),[4],68%
same,p16 mRNA,[5],35.4 (±5.6) %
same,Col1a1 mRNA,[5],47.8 (±4.7) %
same,Dermal Thickness,[5],418 (±42.3) μm
same,Outer nuclear layer thickness,[6],32.7 (±2.6) μm
same,p16 mRNA,[6],42 (±4.4) %
"C[C@H]1[C@H](C)CC[C@]2(C(=O)O)CC[C@]3(C)C(=CC[C@@H]4[C@@]5(C)CC[C@H](O)C(C)(C)[C@@H]5CC[C@]43C)[C@H]12 [LX-2001, Ursolic acid]",HMGN1,[1],328%
same,Survival,senescent foreskin cells,57.8
same,Dermal Thickness (μm),[2],241 (±46.6) μm
same,Relative area of hair loss (%),[2],73 (±8.3) %
same,Col1a1 mRNA (Fold),[2],2.2 (±0.4) Fold
same,SDF1 mRNA (fold),[2],1.6 (±0.2) fold
same,Wound size (mm),[3],2.5 (±0.5) mm
same,Cataract incidence (%),[4],75%
same,p16 mRNA,[5],64.2 (±4.4) %
same,Col1a1 mRNA,[5],62.8 (±5.6) %
same,Dermal Thickness,[5],394 (±78.4) μm
same,Outer nuclear layer thickness,[6],34.1 (±5.1) μm
same,p16 mRNA,[6],61 (±4.1) %
"C[C@H]1[C@H](C)CC[C@]2(C(=O)O)CC[C@]3(C)C(=CC[C@@H]4[C@@]5(C)C[C@@H](O)[C@H](O)C(C)(C)[C@@H]5CC[C@]43C)[C@H]12 [LX-2002, Corosolic acid]",HMGN1,[1],314%
same,Survival,senescent foreskin cells,58.3
same,Dermal Thickness (μm),[2],253 (±40.1) μm
same,Relative area of hair loss (%),[2],75 (±8.3) %
same,Col1a1 mRNA (Fold),[2],1.9 (±0.3) Fold
same,SDF1 mRNA (fold),[2],1.4 (±0.1) fold
same,Wound size (mm),[3],2.7 (±0.4) mm
same,Cataract incidence (%),[4],71%
same,p16 mRNA,[5],51.3 (±2.6) %
same,Col1a1 mRNA,[5],71.2 (±4.2) %
same,Dermal Thickness,[5],427 (±60.1) μm
same,Outer nuclear layer thickness,[6],30.1 (±7.8) μm
same,p16 mRNA,[6],60 (±3.8) %
